# Legend:
# [1] = tested on: human epidermal keratinocyte cells; experiment: LC3 puncta assay (confocal microscope); assay type: cell-based; conditions: 100 uM, 48 hours, anti-LC3 immunostaining; FIG. 7
# Procedure: As a specific experimental method, after 200 ul of poly-L-lysine (sigma) was put into each well of a 15 ul slide glass (Ibidi) and a reaction was carried out at room temperature for 30 minutes, followed by coating, human epidermal keratinocyte cells (Gibco BRL) were cultured and treated with respective test materials (rapamycin, compound represented by Structural Formula 1, and vitamin C) at a concentration of 100 uM. After the culturing for 48 hours was terminated, a medium was removed, and the cultured cells were fixed and blocked using formalin. Thereafter, the cells were labeled with anti-LC3 (Abfrontier) and anti-rabbit IgG-FITC (sigma), nucleus was stained with 4′,6′-diamidine-2′-phenylindole dihydrochloride (DAPI), and then, whether or not a puncta was formed in the cells was confirmed using a confocal microscope.
# [2] = ABTS radical scavenging assay (in-vitro anti-oxidant activity); assay type: biochemical; conditions: absorbance at OD734 after 30 minutes; FIG. 3
# Procedure: In order to measure in-vitro anti-oxidant activity of the compound represented by Structural Formula according to the present invention, ABTS radical scavenging assay was performed. When 2,2′-azino-bis-(3-ethylbenzothiazoline-6-sulfonic acid (ABTS) reacts with potassium persulfate, ABTS^+, which is an active cation, is formed, but in the case in which an anti-oxidant material is present in a test sample, ABTS^+ is removed by anti-oxidant activity, a greenish blue color, which is a peculiar color of ABTS^+, is decolorized, which may be measured as an absorbance value, thereby making it possible to evaluate the anti-oxidant activity.
# As a specific experimental method, after mixing ABTS diammonium salt (7 mM) and potassium persulfate (2.45 mM) with each other in distilled water in order to activate stabilized ABTS diammonium salt, a reaction was carried out at room temperature for 16 hours, thereby forming an ABTS radical. After diluting the resultant in a phosphate buffer solution (PBS) to prepare a reaction solution so that an OD734 value was about 1.5, the reaction solution was mixed with vitamin C (Vit C), pyrrolidone carboxylic acid (PCA), or the compound represented by Structural Formula 1 disclosed in the present invention to induce a reaction. After 30 minutes, an amount of the remaining activated ABTS radical was analyzed by measuring absorbance at OD734.
# [3] = tested on: genes associated with anti-oxidation and autophagy; experiment: cDNA microarray of genes associated with anti-oxidation and autophagy; assay type: cell-based
# Procedure: (§1) In order to find a cause of increasing an intracellular anti-oxidant activity by treatment with the compound represented by Structural Formula 1, cDNA microarray was performed, thereby confirming that transcription of several kinds of important genes associated with anti-oxidation and autophagy was increased. Proteins for the selected genes were quantified by western blot.
# [4] = tested on: human epidermal keratinocyte cells; experiment: Western blot of anti-oxidant and autophagy-related protein expression; assay type: cell-based; conditions: 50, 100, or 200 um, 48 hours
# Procedure: as §1
# As a specific experimental method, after treating human epidermal keratinocyte cells (Gibco BRL) with the compound represented by Structural Formula 1 at a concentration of 50, 100, or 200 um while culturing the cells in a 600 culture dish, culturing was performed for 48 hours. After the culturing was terminated, a medium was removed, a RIPA lysis buffer containing protease inhibitor cocktail (2 ug/ml aprotinin, 5 ug/ml leupeptin, 1 ug/ml pepstatin A, 1 mM PMSF, 5 mM EDTA and 1 mM EGTA) was added thereto, thereby obtaining an entire cell homogenate. Thereafter, total proteins were quantified through microBCA assay (SMART micro BCA protein assay kit, Intron biotechnology), the cell homogenate (10 to 20 ug) was loaded on a SDS-PAGE gel, and respective proteins were isolated by electrophoresis and moved to a nitrocellulose membrane. […]
# [5] = tested on: human dermal fibroblast cells; experiment: Electron microscopy assay of autophagy structures; assay type: cell-based; conditions: 50 uM, 24 hours; FIGS. 8 and 9
# Procedure: As a specific experimental method, after treating human dermal fibroblast cells with the compound represented by Structural Formula 1 at a concentration of 50 uM while culturing the cells, the culturing was performed for 24 hours. After the culturing was terminated, the cells were fixed, a paraffin block was prepared, and then, cell images were analyzed using an electron microscope.
# An autophagy pathway starts from formation of an isolated precursor membrane having a cup shape, referred to as phagophore. The phagophore may form a double membrane […] known as autophagosome through initiation, nucleation, elongation, and closure processes. The autophagosome carries condensed proteins, organelles or pathogenic bacteria in damaged cells to lysosome in a captured state, and fused with lysosome to form autophagolysosome. The autophagolysosome decomposes the captured constituents in an acidic environment mediated by acid hydrolase.
# [6] = tested on: human epidermal keratinocyte cells; experiment: Cell protection effect against H2O2 oxidative stress (MTT); assay type: cell-based; conditions: then 1 mM H2O2 4 hours
# Procedure: Through the results in Examples 2 to 6, it was confirmed that expression of the anti-oxidant proteins and the autophagy-related proteins in cells was increased by the compound represented by Structural Formula 1, and thus, autophagy in the cells was activated. Therefore, in order to confirm whether or not activation of autophagy as described above may protect cells from cytotoxicity caused by ROS, follow-up research into a cell protection effect was conducted.
# As a specific experiment method, after treating human epidermal keratinocyte cells (Gibco BRL) with respective test materials (vitamin C and the compound represented by Structural Formula 1) at 0.1 mM or 1 mM, respectively, while culturing the cells in a 96-well culture dish, the cells were cultured for 24 hours or 48 hours, the resultant was washed, and 1 mM H2O2 was added thereto, and additional culturing was performed for 4 hours. Thereafter, each of the wells was washed, 10 ul of 3-(4,5-dimethylthiazol-2-yl)-2,5-diphenyltetrazolium bromide (MTT) dissolved in PBS (5 mg/ml) was added to each of the wells, and a reaction was carried out at 37° C. under a 5% CO2 condition. Thereafter, a supernatant was carefully removed, MTT formazan precipitated in the cells was dissolved in 100 ul of DMSO, and then absorbance at OD570 was measured using an enzyme-linked immunosorbent assay (ELISA) reader.
# [7] = tested on: human epidermal keratinocyte cells; experiment: Intracellular ROS by DCFH-DA dye and FACS scanning after H2O2; assay type: cell-based; conditions: 100 uM pre-treatment for 48 hours, 10 uM H2O2 10 minutes, FIG. 4
# Procedure: In order to measure an intercellular anti-oxidant activity of the compound represented by Structural Formula 1 according to the present invention, an amount of intracellular reactive oxygen species (ROS) was measured using 6-carboxy-2′,7′-dichlorofluorescein diacetate (DCFH-DA) dye and fluorescence activated cell sorter (FACS) scanning.
# As a specific experimental method, human epidermal keratinocyte cells (Gibco BRL) were uniformly seeded onto a 600 culture dish (3×10^5 cells/dish) and cultured in an epilife medium (Gibco BRL) containing human keratinocyte growth supplement (HKGS, Gibco BRL) at 37° C. in a 5% CO2 incubator for 24 hours. Thereafter, the test materials (H2O2, vitamin C, and the compound represented by Structural Formula 1) were each dissolved in water at a concentration of 10 mM to prepare a concentrate, the prepared concentrate was diluted so as to have a concentration of 100 uM using the medium and put into a culture dish to treat the cells. Then, culturing was performed for 48 hours, and after the culturing was terminated, the medium was removed and the resultant was washed, thereby preparing a subsequent experiment. Next, 10 uM hydrogen peroxide was added thereto, the culturing was performed for 10 minutes, the resultant was washed again. […]
SMILES,formation of LC3 puncta in the cells [1],scavenging activity on the activated ABTS radical [2],transcription of genes associated with anti-oxidation and autophagy [3],"expression of proteins having high anti-oxidant activities (Prx2 monomer, Prx3, HSP70 based Grp75, HSP90B1, EPHX2, stanniocalcin2) ([4]; FIG. 5)","expression of proteins important in autophagy and detoxification activities (BiP, FoxO1, sirtuin5) ([4]; FIG. 6)",number of autophagolysosome [5],number of autophagosome (increase by treatment) [5],number of phagophore [5],"cell viability ([6]; 0.1 mM or 1 mM, pre-treatment for 24 hours, FIG. 10)","cell viability ([6]; 0.1 mM or 1 mM, pre-treatment for 48 hours, FIG. 11)",amount of intracellular ROS formed by treatment with H2O2 [7],"cell viability ([6]; 1 mM, pre-treatment for 24 hours, FIG. 10)","cell viability ([6]; 1 mM, pre-treatment for 48 hours, FIG. 11)","viability at 100 µM ([6]; Homo sapiens, Keratinocyte, 0.1 mM, pre-treatment for 24 hours, FIG. 10)"
"O=C(O)CN(CCCC[C@H](NC(=O)[C@H](CCCCN(CC(=O)O)CC(=O)O)N(CC(=O)O)CC(=O)O)C(=O)O)CC(=O)O [2-[2,6-bis-(bis-carboxymethyl-amino)-hexanoyl-amino]-6-(bis-carboxymethyl-amino)-hexanoic acid]",a large amount of a LC puncta,concentration-dependent scavenging activity,increased,increased,increased,significantly increased,≥ 2 times,significantly increased,improved,improved,almost disappeared,,,
"O=C1O[C@H]([C@@H](O)CO)C(O)=C1O [vitamin C, reference compound]",not increased,concentration-dependent scavenging activity,,,,,,,,,not decreased,rather deteriorated,rather deteriorated,~95%

# — patent publication US9920092B1, “Composition having anti-oxidant, anti-aging, and autophagy activities and uses thereof” (Incospharm Corporation, priority 2017, dated 2018)
